Experimental data reported in ChEMBL document CHEMBL4261547, “Bitopic fluorescent antagonists of the A2A adenosine receptor based on pyrazolo[4,3-e][1,2,4]triazolo[1,5-c]pyrimidin-5-amine functionalized congeners” (Medchemcomm, 2017).

Biological target: T1, Adenosine receptor A1 (Homo sapiens) (UniProt P30542)
T1 sequence (whole entry): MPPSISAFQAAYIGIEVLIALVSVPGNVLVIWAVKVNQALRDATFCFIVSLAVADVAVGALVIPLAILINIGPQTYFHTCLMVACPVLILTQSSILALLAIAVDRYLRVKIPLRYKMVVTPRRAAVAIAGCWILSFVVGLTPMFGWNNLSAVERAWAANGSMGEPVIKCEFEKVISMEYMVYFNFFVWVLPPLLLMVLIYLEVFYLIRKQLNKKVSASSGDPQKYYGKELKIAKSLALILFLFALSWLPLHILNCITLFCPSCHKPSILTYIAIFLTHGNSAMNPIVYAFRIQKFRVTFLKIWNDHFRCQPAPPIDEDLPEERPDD
Assay: Binding affinity to recombinant human adenosine receptor A1 expressed in HEK293 cell membranes at 50 to 200 nM after 1 hr by FACS analysis relative to control

Activity: < 25%
Compound: Nc1nc2c(cnn2CCCc2ccc(OCC(=O)NCCCCNC(=O)CCCCCNC(=O)COc3ccc(/C=C/C4=[N+]5C(=Cc6ccc(-c7cccs7)n6[B-]5(F)F)C=C4)cc3)cc2)c2nc(-c3ccco3)nn12
